Results published in publication PMC9797592, “TJ-M2010-5, a novel CNS drug candidate, attenuates acute cerebral ischemia-reperfusion injury through the MyD88/NF-κB and ERK pathway” (Frontiers in Pharmacology, 2022).
Where two headings read alike, the source gives them in different places.

Experiments:
CIRI mice [1] = test: Flow cytometry of immune cells isolated from the ischemic brain hemisphere; assay type: in vivo, C57BL/6 mice; details: TJ-5 injected at the time of reperfusion
Method: After the mice were anesthetized, 0.9% saline was used for transcardial perfusion. The right brain hemispheres were homogenized in a 6-well plate using 2 ml Hank’s balanced salt solution (HBSS, Solarbio) per well. Collagenase IV (1 mg/ml) was added to […]. The brain homogenate was filtered through a 70 μm cell strainer and centrifuged at 300 g for 5 min at 4°C. Then, 2 ml of 30% Percoll (Sigma) were added to resuspend the brain cell precipitate, and the resuspended cells were slowly added to a 15 ml centrifuge tube containing 3 ml of 70% Percoll. The intermediate layer cells were analyzed by flow cytometry after density-gradient centrifugation.
Approximately 5 × 10^5 cells were suspended in 200 μL HBSS, and anti-mouse CD16/CD32 (5 ng/μL) was used to block Fc receptor binding. The cells were stained with allophycocyanin-conjugated CD45 antibody (1 ng/μL), FITC-conjugated CD11b antibody (1 ng/μL), and phycoerythrin-conjugated Ly6G antibody (1 ng/μL) and incubated in the dark at 4°C for 30 min. Finally, the cells were washed with HBSS buffer, resuspended in 200 μL of HBSS, and analyzed using a flow cytometer (BD FACSCalibur).

CIRI mice [2] = test: MCAO cerebral ischemia-reperfusion injury model: neurological deficit score and TTC infarct volume; assay type: in vivo, C57BL/6 mice
Method: Male C57BL/6 mice (Beijing Vital River Laboratory Animal Technology Co. Ltd., Beijing, China) weighing 22–28 g and aged 8–10 weeks were used. All animal experiments were approved by the Institutional Animal Care and Use Committee of Tongji Hospital (Wuhan, China). All procedures were performed in accordance with specific pathogen-free standards. Mice were randomly divided into the following seven groups: sham, I/R, vehicle (I/R + saline), I/R + TJ-5 (5 mg/kg), I/R + TJ-5 (10 mg/kg), I/R + TJ-5 (15 mg/kg), and I/R + edaravone (3 mg/kg).
The mice were anesthetized with 1% pentobarbital sodium solution via intraperitoneal injection, and the body temperature was maintained at 37.0°C–37.5°C. The middle cerebral artery occlusion (MCAO) model was established according to the Longa method, as described previously ([Longa et al., 1989]). In brief, the right carotid artery was carefully separated and exposed. A silicon-coated embolic suture (Doccol, United States) was inserted slowly from the external carotid artery (ECA) into the internal carotid artery (ICA) until it reached the middle cerebral artery (MCA). After 1 h of ischemia, the embolic suture was withdrawn. The surgical procedure in the sham group was the same as that in the I/R group, but the MCA was not obstructed.
After 24 h of reperfusion, each group of mice was scored blindly, according to the scoring system of the Longa method ([Longa et al., 1989]). The score was 0 for no obvious neurological deficit, one for inability to fully extend the left forelimb, two for turning to the left, three for leaning to the left while walking, and four for the inability to walk spontaneously and impaired consciousness.
The mice were sacrificed 24 h after I/R. Mouse brains were harvested for the measurement of cerebral infarct volume. The brains were frozen at −80°C for 5 min and cut into five 2-mm thick slices. The slices were then placed in a small dish, 2% 2,3,5-triphenyltetrazolium chloride (TTC) solution (Sigma, United States) was added, and 4% paraformaldehyde was used for fixation. Images were captured using a digital camera. ImageJ software was used to measure the volume of the brain infarction.

[3] = Drug concentration in serum and tissues by LC-MS, pharmacokinetics and BBB permeability; assay type: in vivo, mice; details: for concentration in CL brain: contralateral non-ischemic hemisphere; for concentration in CL brain / AUC(0-t) / concentration at 5 min / concentration at 10 min / concentration at 30 min / concentration at 1 h / concentration at 2 h / concentration at 6 h: mean ± SD; for Kp / half-life / AUC(0-t) / concentration at 5 min / concentration at 10 min / concentration at 30 min / concentration at 1 h / concentration at 2 h / concentration at 6 h: C57BL/6, mouse; for Kp / half-life / AUC(0-t): iv; for Kp: mean AUC0–6 h ratio, read-out: Kp (brain-serum ratio, AUCbrain/AUCserum); for half-life: read-out: t1/2 (elimination half-life) (converted); for AUC(0-t): read-out: AUC0–6 h; for concentration at 5 min / concentration at 10 min / concentration at 30 min / concentration at 1 h / concentration at 2 h / concentration at 6 h: intravenous
Method: The mice were intravenously injected with 15 mg/kg TJ-5 at the time of reperfusion 1 h after MCAO or Sham. The mice were then anesthetized at 5 min, 10 min, 30 min, 1 h, and 2 h, or 6 h post-dosing. Blood was collected to prepare serum samples, and the ipsilateral ischemic hemisphere (IL brain), contralateral non-ischemic hemisphere (CL brain), heart, and liver samples were obtained after transcardial perfusion with 0.9% saline. Liquid chromatography-mass spectrometry (LC-MS) was performed to determine the concentration of TJ-5 in the samples. The time-concentration curve, area under the curve (AUC), and pharmacokinetic (PK) parameters of TJ-5 were analyzed using the PKslover 2.0 PK software ([Zhang et al., 2010]). BBB permeability was evaluated using the brain-to-serum partition coefficient (Kp), which was calculated as AUCbrain/AUCserum.

With `O=C(CCN1CCN(Cc2ccccc2)CC1)Nc1nc(-c2ccccc2)cs1` [TJ-5] the “number of brain-infiltrating CD11b+CD45hi myeloid cells” value (CIRI mice [1]) was “reduced the number”, the “proportion of inactive microglia (CD11b+CD45int)” value (CIRI mice [1]) was “increased the proportion” and the “percentage of infarct volume” value (CIRI mice [2]; TJ-5 15 mg/kg i.v. at 1 h of ischemia, 24 h reperfusion, TTC, I/R group 34.24%) was 8.47%. The neurological deficit score (CIRI mice [2]; TJ-5 15 mg/kg vs I/R group, 24 h reperfusion, Longa score) was “significantly lower”, the infarct volume (CIRI mice [2]; intravenous TJ-5 at 4 h reperfusion, TTC at 24 h after reperfusion) was “effectively reduced infarct volume” and the “concentration in CL brain” value ([3]; 15 mg/kg i.v. at reperfusion 1 h after MCAO, 5 min) was 5877.53 ± 989.32 ng/g. For the same compound, the “concentration in CL brain” value ([3]; 15 mg/kg i.v. at reperfusion 1 h after MCAO, 10 min) was 5364.30 ± 749.83 ng/g, the “concentration in CL brain” value ([3]; 15 mg/kg i.v. at reperfusion 1 h after MCAO, 30 min) was 2480.87 ± 985.41 ng/g and the “concentration in CL brain” value ([3]; 15 mg/kg i.v. at reperfusion 1 h after MCAO, 1 h) was 1662.40 ± 117.03 ng/g. For the same compound, the “concentration in CL brain” value ([3]; 15 mg/kg i.v. at reperfusion 1 h after MCAO, 2 h) was 347.65 ± 55.25 ng/g, the “concentration in CL brain” value ([3]; 15 mg/kg i.v. at reperfusion 1 h after MCAO, 6 h) was 10.43 ± 5.69 ng/g and the BBB permeability ([3]; 15 mg/kg i.v., brain vs serum concentrations) was “good BBB permeability”. It also gave a Kp ([3]; CL brain (contralateral non-ischemic hemisphere) / serum, 15 mg/kg i.v., CL brain) of 5.21, a Kp ([3]; IL brain (ipsilateral ischemic hemisphere) / serum, 15 mg/kg i.v., IL brain) of 5.58 and a Kp ([3]; brain (Sham) / serum, 15 mg/kg i.v., Sham brain) of 4.98. For the same compound, the half-life ([3]; contralateral non-ischemic hemisphere (CL brain), 15 mg/kg i.v., CL brain) was 24.6 min, the AUC(0-t) ([3]; contralateral non-ischemic hemisphere (CL brain), 15 mg/kg i.v., CL brain, tissue density assumed 1 g/ml) was 4790 ± 353 ng·h/mL and the concentration at 5 min ([3]; 15 mg/kg i.v., Sham brain, 5 min, read-out: concentration in Sham brain) was 6230 ± 436 ng/g. The concentration at 10 min ([3]; 15 mg/kg i.v., Sham brain, 10 min, read-out: concentration in Sham brain) was 4900 ± 53.9 ng/g, the concentration at 30 min ([3]; 15 mg/kg i.v., Sham brain, 30 min, read-out: concentration in Sham brain) was 2730 ± 256 ng/g and the concentration at 1 h ([3]; 15 mg/kg i.v., Sham brain, 1 h, read-out: concentration in Sham brain) was 1580 ± 469 ng/g. The concentration at 2 h ([3]; 15 mg/kg i.v., Sham brain, 2 h, read-out: concentration in Sham brain) was 268 ± 6.25 ng/g, the concentration at 6 h ([3]; 15 mg/kg i.v., Sham brain, 6 h, read-out: concentration in Sham brain) was 18.7 ± 11 ng/g and the concentration at 5 min ([3]; 15 mg/kg i.v., heart, 5 min, read-out: concentration in heart) was 5910 ± 825 ng/g. The concentration at 10 min ([3]; 15 mg/kg i.v., heart, 10 min, read-out: concentration in heart) was 4590 ± 352 ng/g, the concentration at 30 min ([3]; 15 mg/kg i.v., heart, 30 min, read-out: concentration in heart) was 4730 ± 2060 ng/g and the concentration at 1 h ([3]; 15 mg/kg i.v., heart, 1 h, read-out: concentration in heart) was 1660 ± 335 ng/g. The concentration at 2 h ([3]; 15 mg/kg i.v., heart, 2 h, read-out: concentration in heart) was 684 ± 199 ng/g, the concentration at 6 h ([3]; 15 mg/kg i.v., heart, 6 h, read-out: concentration in heart) was 51.6 ± 11.9 ng/g and the concentration at 5 min ([3]; 15 mg/kg i.v., liver, 5 min, read-out: concentration in liver) was 7160 ± 594 ng/g. The concentration at 10 min ([3]; 15 mg/kg i.v., liver, 10 min, read-out: concentration in liver) was 5890 ± 528 ng/g, the concentration at 30 min ([3]; 15 mg/kg i.v., liver, 30 min, read-out: concentration in liver) was 4710 ± 1130 ng/g and the concentration at 1 h ([3]; 15 mg/kg i.v., liver, 1 h, read-out: concentration in liver) was 2960 ± 1030 ng/g. For the same compound, the concentration at 2 h ([3]; 15 mg/kg i.v., liver, 2 h, read-out: concentration in liver) was 750 ± 249 ng/g, the concentration at 6 h ([3]; 15 mg/kg i.v., liver, 6 h, read-out: concentration in liver) was 170 ± 36.1 ng/g and the concentration at 5 min ([3]; 15 mg/kg i.v., serum, 5 min, read-out: concentration in serum) was 1190 ± 209 ng/mL. The concentration at 10 min ([3]; 15 mg/kg i.v., serum, 10 min, read-out: concentration in serum) was 980 ± 203 ng/mL, the concentration at 30 min ([3]; 15 mg/kg i.v., serum, 30 min, read-out: concentration in serum) was 472 ± 151 ng/mL and the concentration at 1 h ([3]; 15 mg/kg i.v., serum, 1 h, read-out: concentration in serum) was 285 ± 29.1 ng/mL. The concentration at 2 h ([3]; 15 mg/kg i.v., serum, 2 h, read-out: concentration in serum) was 79.6 ± 26.9 ng/mL, the concentration at 6 h ([3]; 15 mg/kg i.v., serum, 6 h, read-out: concentration in serum) was 2.08 ± 1.12 ng/mL and the concentration at 5 min ([3]; ipsilateral ischemic hemisphere (IL brain), 15 mg/kg i.v. at reperfusion 1 h after MCAO, ipsilateral ischemic hemisphere, 5 min, read-out: concentration in IL brain) was 6650 ± 591 ng/g. For the same compound, the concentration at 10 min ([3]; ipsilateral ischemic hemisphere (IL brain), 15 mg/kg i.v. at reperfusion 1 h after MCAO, ipsilateral ischemic hemisphere, 10 min, read-out: concentration in IL brain) was 5799 ± 29.8 ng/g, the concentration at 30 min ([3]; ipsilateral ischemic hemisphere (IL brain), 15 mg/kg i.v. at reperfusion 1 h after MCAO, ipsilateral ischemic hemisphere, 30 min, read-out: concentration in IL brain) was 2890 ± 611 ng/g and the concentration at 1 h ([3]; ipsilateral ischemic hemisphere (IL brain), 15 mg/kg i.v. at reperfusion 1 h after MCAO, ipsilateral ischemic hemisphere, 1 h, read-out: concentration in IL brain) was 1750 ± 164 ng/g. For the same compound, the concentration at 2 h ([3]; ipsilateral ischemic hemisphere (IL brain), 15 mg/kg i.v. at reperfusion 1 h after MCAO, ipsilateral ischemic hemisphere, 2 h, read-out: concentration in IL brain) was 327 ± 57.2 ng/g, the concentration at 6 h ([3]; ipsilateral ischemic hemisphere (IL brain), 15 mg/kg i.v. at reperfusion 1 h after MCAO, ipsilateral ischemic hemisphere, 6 h, read-out: concentration in IL brain) was 11.7 ± 6.43 ng/g and the half-life ([3]; ipsilateral ischemic hemisphere (IL brain), 15 mg/kg i.v., IL brain) was 24.6 min. For the same compound, the AUC(0-t) ([3]; ipsilateral ischemic hemisphere (IL brain), 15 mg/kg i.v., IL brain, tissue density assumed 1 g/ml) was 5140 ± 239 ng·h/mL, the half-life ([3]; 15 mg/kg i.v., Sham brain) was 39 min and the AUC(0-t) ([3]; 15 mg/kg i.v., Sham brain, tissue density assumed 1 g/ml) was 4580 ± 276 ng·h/mL. The half-life ([3]; 15 mg/kg i.v., heart) was 40.2 min, the AUC(0-t) ([3]; 15 mg/kg i.v., heart, tissue density assumed 1 g/ml) was 6480 ± 769 ng·h/mL and the half-life ([3]; 15 mg/kg i.v., liver) was 42 min. The AUC(0-t) ([3]; 15 mg/kg i.v., liver, tissue density assumed 1 g/ml) was 8240 ± 852 ng·h/mL, the AUC(0-t) ([3]; 15 mg/kg i.v., serum) was 919 ± 82.2 ng·h/mL and the half-life ([3]; 15 mg/kg i.v., serum) was 22.8 min. The “time effective concentration is maintained” value ([3]; single intravenous injection of 15 mg/kg) was “about 6 h”.
